Results as given in US9233127B2, “Compositions and methods for CXCR4 signaling and umbilical cord blood stem cell engraftment” (University of Virginia Patent Foundation, priority 2012, dated 2016).
“Also recorded” adds a separate entry of the source.

Legend:
[1] = tested on: UCB T-cells; assay: Cytoplasmic IFN-γ and NFAT1 expression in UCB T-cells during mitogen stimulation; type: cell-based, human; conditions: for percentages of IFN-γ-expressing UCB T-cells: exogenous cytokine added during mitogen stimulation, IFN-γ 100 or 1,000 U/ml, 24 h
Experimental: To further test expression and regulation, exogenous IFN-γ was added (100 or 1,000 U/ml) during mitogen stimulation and cytoplasmic IFN-γ expression in UCB T-cells was measured.

[2] = tested on: murine BMNCs and CFU-GM progenitor cells; assay: Migration of murine BMNCs and CFU-GM progenitors to SDF-1 gradient after cationic peptide priming; type: cell-based
Experimental: FIG. 8A-B—A) BM mononuclear cell and B) CFU-GM migration in response to an SDF-1 gradient after priming with LL-37 or hBD-2. Values are fold increases of migrated cells compared to media alone.
FIG. 17A-B—Cationic peptides released from granulocytes enhance responsiveness of HSPCs to SDF-1 gradient. […] Values are the fold increases of migrated cells compared to media alone. M, media alone; SDF-1 (L), 50 ng/ml; SDF-1 (H), 300 ng/ml; C3a, 1 μg/ml. * P<0.05 as compared with SDF-1 (50 ng/ml) alone. The data shown represent the combine results from four independent experiments carried out in triplicate per group (n=12).
We also evaluated the effect of complement fragment 5a (C5a). […] After leaving the BM, granulocytes undergo degranulation in response to plasma C5a and secrete cationic peptides, such as cathelicidin (LL-37) and β-defensin-2 (hBD-2). […] It was hypothesized that this response may be affected by the distribution of membrane lipids by cationic peptides. […] Direct confocal analysis of CXCR4 and lipid raft colocalization in the presence or absence of cationic peptides confirmed these findings.

[3] = tested on: UCB CD34+ cells; assay: Transwell chemotaxis of UCB CD34+ cells to SDF-1 (priming); type: cell-based, human; conditions: for chemotactic response of UCB CD34+ cells to SDF-1: added to lower chambers with SDF-1 10 ng/mL, uPAR, ICAM, VCAM, C3a 1 μg/mL, FN 2 μg/mL, FG 4 μg/mL; for induction of chemotaxis of HSPCs when used alone: without SDF-1
Experimental: (§1) FIG. 11A-B—Effect of SLP and its components on chemotaxis of CD34^+ cells. Panel A: Chemotaxis of BM CD34^+ cells towards medium alone (control), SDF-1 low (10 ng/mL) alone, SLP (combined SLP from three patients), SDF-1 low+SLP, and SDF-1 high (300 ng/mL). Data are pooled from quadruplicate samples from three independent experiments. *p<0.00001. Panel B: Chemotaxis of UCB CD34^+ cells to medium alone (control), SDF-1 low (10 ng/mL) alone and SDF-1 low (10 ng/mL)+uPAR (1 μg/mL) or +ICAM (1 μg/mL) or +VCAM (1 μg/mL) or +FN (2 μg/mL), or +FG (4 μg/mL) or +C3a (1 μg/mL). Data are pooled from quadruplicate samples from three independent experiments. * p<0.00001.
An increased migration of UCB-derived CD34^+ cells, as compared to BM and mPB CD34^+ cells was reported in transwell migration assays was previously reported. However, we noticed large inter-individual differences in the in vitro migratory ability of UCB CD34^+ cells, ranging from 1.1% to 14.3% for spontaneous migration and 3.1% to 62.3% for SDF-1-induced (300 ng/mL) migration. The lower migratory capacity in vitro of UCB-derived CD34^+ cells was not due to lower expression of CXCR4, but likely reflects the decreased migratory behavior of these cells. […] Based on this, we postulate that UCB HSPC responsiveness to an SDF-1 gradient varies with each collected UCB unit and that, in cases when responsiveness is low, UCB HSPCs should be identified and primed before infusion.
Moreover, as SLP contains several components that potentially could prime the responses of CD34^+ cells, (Example 2, FIG. 11, panel B) the most important being PMV and activated complement proteins such as anaphylatoxin C3a, soluble VCAM-1, soluble ICAM-1, uPAR, FG, and FN, we evaluated whether these factors could induce the chemotaxis of HSPCs when used alone. […] We also examined whether FG, FN, soluble VCAM-1, soluble ICAM-1, uPAR, and C3a prime HSPCs in their responses to SDF-1. […] To determine whether this also affects UCB CD34^+ clonogenic progenitors, UCB CD34^+ cells were collected from the lower chambers after the chemotaxis assay and plated in methylcellulose cultures. […] Moreover, a similar effect for the established hematopoietic cell lines Molt 4, Nalm-6, and THP-1 was also found (data not shown).

[4] = tested on: CXCR4; assay: Western blot of CXCR4 in lipid raft membrane fractions of THP-1 cells; type: cell-based, human
Experimental: FIG. 15A-B—Western blot analysis of the colocalization of CXCR4 in fractions of cell membranes enriched in lipid rafts (fractions 3-5) and depleted of lipid rafts (fractions 9-11). Panel A: Hematopoietic THP-1 cells were stimulated by C3a (1 μg/mL) or desArgC3a (1 μg/mL) or not stimulated (control). CXCR4 was detected in these membrane fractions by Western blot along with ganglioside GM1, a marker of lipid rafts. Experiments were performed three times with similar results. Panel B: In control experiments, cells were pretreated for 1 hr with 10 mM MβCD. A representative study is shown.
Furthermore, direct evidence of the effect of priming agents on CXCR4 incorporation into membrane lipid rafts was obtained from Western blot analysis of CXCR4 expression in various fractions of cell membranes isolated according to their lipid raft content (Example 2, FIG. 15A-B). […] The role of C3a in incorporation of CXCR4 into membrane lipid rafts in UCB cells and involvement of other signaling molecules to this phenomenon will be evaluated in Aim 1.

[5] = tested on: CD34+ cells; assay: Transwell chemotaxis of CD34+ cells to an SDF-1 gradient (priming); type: cell-based, human
Experimental: as §1
Chemotaxis of CD34^+ cells to medium alone (control), C3a (1 μg/ml), C3adesArg (1 μg/ml), SDF-1 low (10 ng/mL) alone, and SDF-1 low (10 ng/mL)+C3a low (0.1 μg/ml) or SDF-1 low (10 ng/mL)+C3a (1 μg/ml) or SDF-1 low (10 ng/mL)+C3adesArg (1 μg/ml). Data are pooled from quadruplicate samples from three independent experiments.* p<0.00001.
FIG. 13A-B—Chemotaxis of cells to an SDF-1 gradient is lipid raft-dependent. Panel A: Chemotaxis of CD34^+ cells to medium alone (control), SDF-1 (300 ng/mL) and SDF-1 (300 ng/mL) after preincubation for 1 hr with Amphotericin (10 μg/mL) or Nystatin (50 μg/mL). Cells were collected after chemotaxis from the lower chambers and plated in a clonogenic assay. The number of CFU-GM and BFU-E colonies formed by harvested cells is shown as a percentage of control values. Data are pooled from quadruplicate samples from three independent experiments. *p<0.0001. Panel B: Chemotaxis of CD34^+ cells towards medium alone (control), SDF-1 low (10 ng/mL) alone, or SDF-1 low with cells exposed to C3a (1 μg/mL). Cells pretreated before chemotaxis for 1 hr with MβCD (2.5 mM) are shown as gray bars. Data are pooled from quadruplicate samples from three independent experiments. * p<0.00001.
HSPCs from the mPB engraft faster compared to HSPCs aspirated from BM. To test the hypothesis that mPB-derived HSPCs are primed in their responses to SDF-1 by molecules present in SLP, we pooled together SLP from three patients and exposed BM or UCB CD34^+ cells to the SLP during chemotaxis to a low (10 ng/mL) dose of SDF-1.
To address this issue further, the formation of rafts in the cells was perturbed by MβCD, which depletes cholesterol from the cell membrane. The CD34^+ cells were pre-incubated with MβCD for 1 hr. Chemotaxis to a low dose of SDF-1 in the presence of C3a (in the upper chambers) was evaluated.

[6] = tested on: NFAT1; assay: NFAT1 protein and miR-184 in UCB CD4 T-cells stimulated with αCD3/CD28 plus exogenous IFN-γ; type: cell-based, human; conditions: for NFAT1 protein expression: CD3/28 stimulation 24 h, absence of monocytes, 1000 U/ml
Experimental: FIG. 22A-B—Rescue of NFAT1 protein in UCB CD4 T-cells during primary stimulation in the presence of exogenous IFN-γ. UCB CD4 T-cells were stimulated with αCD3/CD28 for 24 h with 1000 U/ml of exogenous rh-IFN-γ. Cell lysates were harvested and Western Blot was probed for NFAT1 and β-actin.

Molecule: TNF-α
- percentages of IFN-γ-expressing UCB T-cells [1]: did not result in up-regulation

Molecule: MIP-3alpha: agonist of a membrane receptor that may bind the cationic peptides [reference compound]
- responsiveness of hematopoietic progenitors to plasma SDF-1 (priming effect) [2]: did not show similar priming effects

Molecule: desArgC3a: fragment of C3a where the end arginine residue is cleaved; 76 residues; SEQ ID NO:2
- responsiveness of UCB cells to SDF-1 gradient ([3]; UCB-derived CD34+ cells exposed/primed): significantly increase the responsiveness
- incorporation of Rac-1 into membrane lipid rafts [4]: increased the incorporation of Rac-1
- incorporation of CXCR4 into GM1-enriched membrane lipid rafts (fractions 3-5) ([4]; 1 μg/mL): stimulates incorporation of CXCR4
- chemotaxis of human CD34+ cells to low-threshold doses of SDF-1 ([5]; SDF-1 low 10 ng/mL, C3a or C3adesArg 1 μg/ml): potentiate (prime) chemotaxis
- chemoattraction of CD34+ cells by the C3 cleavage fragment on its own ([5]; no SDF-1, 1 μg/ml): neither C3 cleavage fragments chemoattract

Molecule: IFN-γ: exogenous rh-IFN-γ
- percentages of IFN-γ-expressing UCB T-cells [1]: nearly increased to that measured in adult T-cells
- NFAT1 expression and concomitant IFN-γ expression ([1]; mitogen (ConA) stimulation plus exogenous IFN-γ): strong increases
- IFN-γ expression ([1]; treatment with IFN-γ alone): did not stimulate IFN-γ expression
- NFAT1 expression ([1]; treatment with IFN-γ alone): only slightly increased
- miR-184 expression (qRT-PCR) ([6]; CD3/28 primary stimulation): marked decrease; also recorded: observed to decrease
- NFAT1 protein expression [6]: increases in NFAT1 protein expression
- NFAT1 protein expression ([6]; listed as rh-IFN-γ): noted to increase

B1: soluble ICAM-1: soluble ICAM-1, component of SLP (protein, UniProt P05362 28-480, looked up)
extracellular domain: QTSVSPSKVILPRGGSVLVTCSTSCDQPKLLGIETPLPKKELLLPGNNRKVYELSNVQEDSQPMCYSNCPDGQSTAKTFLTVYWTPERVELAPLPSWQPVGKNLTLRCQVEGGAPRANLTVVLLRGEKELKREPAVGEPAEVTTTVLVRRDHHGANFSCRTELDLRPQGLELFENTSAPYQLQTFVLPATPPQLVSPRVLEVDTQGTVVCSLDGLFPVSEAQVHLALGDQRLNPTVTYGNDSFSAKASVSVTAEDEGTQRLTCAVILGNQSQETLQTVTIYSFPAPNVILTKPEVSEGTEVTVKCEAHPRAKVTLNGVPAQPLGPRAQLLLKATPEDNGRSFSCSATLEVAGQLIHKNQTRELRVLYGPRLDERDCPGNWTWPENSQQTPMCQAWGNPLPELKCLKDGTFPLPIGESVTVTRDLEGTYLCRARSTQGEVTRKVTVNVLSPRYE
modifications: extracellular domain
notes: soluble ICAM-1, component of SLP
- chemotactic response of UCB CD34+ cells to SDF-1 [3]: increased the chemotactic response
- induction of chemotaxis of HSPCs when used alone [3]: no evidence that they did

B2: soluble VCAM-1: soluble VCAM-1, component of SLP (protein, UniProt P19320 25-698, looked up)
extracellular domain: FKIETTPESRYLAQIGDSVSLTCSTTGCESPFFSWRTQIDSPLNGKVTNEGTTSTLTMNPVSFGNEHSYLCTATCESRKLEKGIQVEIYSFPKDPEIHLSGPLEAGKPITVKCSVADVYPFDRLEIDLLKGDHLMKSQEFLEDADRKSLETKSLEVTFTPVIEDIGKVLVCRAKLHIDEMDSVPTVRQAVKELQVYISPKNTVISVNPSTKLQEGGSVTMTCSSEGLPAPEIFWSKKLDNGNLQHLSGNATLTLIAMRMEDSGIYVCEGVNLIGKNRKEVELIVQEKPFTVEISPGPRIAAQIGDSVMLTCSVMGCESPSFSWRTQIDSPLSGKVRSEGTNSTLTLSPVSFENEHSYLCTVTCGHKKLEKGIQVELYSFPRDPEIEMSGGLVNGSSVTVSCKVPSVYPLDRLEIELLKGETILENIEFLEDTDMKSLENKSLEMTFIPTIEDTGKALVCQAKLHIDDMEFEPKQRQSTQTLYVNVAPRDTTVLVSPSSILEEGSSVNMTCLSQGFPAPKILWSRQLPNGELQPLSENATLTLISTKMEDSGVYLCEGINQAGRSRKEVELIIQVTPKDIKLTAFPSESVKEGDTVIISCTCGNVPETWIILKKKAETGDTVLKSIDGAYTIRKAQLKDAGVYECESKNKVGSQLRSLTLDVQGRENNKDYFSPE
modifications: extracellular domain
notes: soluble VCAM-1, component of SLP
- chemotactic response of UCB CD34+ cells to SDF-1 [3]: increased the chemotactic response
- induction of chemotaxis of HSPCs when used alone [3]: no evidence that they did
